Results: patent publication US8173158B2, “Methods of treating gastrointestinal disorders independent of the intake of food” (Takeda Pharmaceuticals U.S.A., Inc., priority 2007, dated 2012)

Experiment: Effect and timing of food on pharmacokinetics of TAK-390 after a single oral dose of TAK-390MR 90 mg (phase 1, 4-way crossover)
Assay type: in vivo, human
Conditions: oral 90 mg dose with a high fat meal
Protocol: The purpose of this study was to evaluate the effect of food on the pharmacokinetics (PK) and pharmacodynamics (PD) of TAK-390 after a single oral dose of TAK-390 MR 90 mg, made as described in Example 1. This study was a phase 1, open-label, randomized, single-dose, 4-way crossover study conducted at a single center. Healthy adult subjects were randomized on Day 1 of Period 1 to 1 of 4 sequence groups that determined the order in which patients received the 4 different dosing regimens (See, Table 4, below). […] There was a minimum washout interval of at least 5 days between the last dose in a period and the first dose in the subsequent period. […] PK parameters for TAK-390 were estimated using standard noncompartmental methods and include: tlag=time delay between drug administration and first observed concentration above the lower limit of quantitation; tmax=time to reach the observed maximum plasma concentration; Cmax=observed maximum plasma concentration; and AUC=area under the plasma concentration vs time curve from time zero the last quantifiable concentration (AUCt) and from time zero to infinity (AUC∞).

Compound: Cc1c(OCC(F)(F)F)ccnc1C[S@@+]([O-])c1nc2ccccc2[nH]1 [dexlansoprazole]
- increase in AUC∞: approximately 37%
- increase in Cmax: approximately 37%
